Results taken from patent US4933347A, “Diamidines and bis(imidazolines) for the treatment of and prophylaxis against pneumocystis carinii pneumonia” (University of North Carolina at Chapel Hill, priority 1988, dated 1990).
Blank lines part the entries; values can stand above or below the compound they belong to.

Legend:
[1] = Solubility (insoluble, not tested in animals); assay type: physicochemical
Pneumocystis carinii [2] = conditions: in vivo; cited from earlier work
[3] = Toxicity of amidines in rats (standard laboratory procedure); assay type: in vivo
Experimental: Compounds having the structure represented by Formula I were synthesized in accordance with the appropriate procedures discussed previously. The reaction schemes shown in Charts I-III specifically identify the methodology used to synthesize the compounds of the respective examples. The compounds which were synthesized are shown in Table IA and the elemental analysis and melting points of the compounds are shown in Table IB. Most of the compounds were tested for toxicity in rats using standard laboratory procedure and the results of that toxicity testing are shown in Table XII. The compounds of Examples 31, 32, and 34 were not synthesized but may be synthesized in the general manner discussed previously.

Pneumocystis carinii [4] = test: Treatment of Pneumocystis carinii pneumonia in Sprague-Dawley rats (extent of disease by histologic score); assay type: in vivo, male Sprague-Dawley rats; conditions: for Extent of Disease by Histologic Score: number of animals with score 0.5 / Extent of disease by histologic score (combined): number of animals in scoring group 0.5: 0.5 = <10 cysts found per 2 sections; for Extent of Disease by Histologic Score: number of animals with score 1 / Extent of disease by histologic score (combined): number of animals in scoring group 1: 1 = scattered cysts, <5% of lung involved; for Extent of Disease by Histologic Score: number of animals with score 2 / Extent of disease by histologic score (combined): number of animals in scoring group 2: 2 = scattered cysts; for Extent of Disease by Histologic Score: number of animals with score 2: 5-10% lung involved or small foci of infection; for Extent of Disease by Histologic Score: number of animals with score 3 / Extent of disease by histologic score (combined): number of animals in scoring group 3: 3 = scattered cysts; for Extent of disease by histologic score (combined): number of animals in scoring group 0.5 / Extent of disease by histologic score (combined): number of animals in scoring group 1 / Extent of disease by histologic score (combined): number of animals in scoring group 2 / Extent of disease by histologic score (combined): number of animals in scoring group 3 / Extent of disease by histologic score (combined): number of animals in scoring group 4: Table XII composite; for Extent of disease by histologic score (combined): number of animals in scoring group 2: 5-10% of lung involved; for Efficacy in treating Pneumocystis carinii (words): 2.5 mg/kg
[5] = intramuscular and intravenous routes; cited from earlier work
[6] = dose as in value, else not given in Table XIII (10 mg/kg test dose)
[7] = 2.5 mg/kg i.v. daily, 14 days, 10-50% of lung involved with some intense areas of infection
[8] = 2.5 mg/kg i.v. daily, 14 days, 4 = >50% of lung involved with many intense areas of focal infection
[9] = tested at 2.5 mg/kg, 10-50% of lung involved
[10] = tested at 2.5 mg/kg, 4 = >50% of lung involved

Solubility (not tested in animals - insoluble) [1]: insoluble
Compound: N=C(N)c1ccc(OCCOc2ccc(C(=N)N)cc2)cc1 [Example 1]

Compound: N=C(N)c1ccc(OCCOc2ccc(C(=N)N)cc2[N+](=O)[O-])c([N+](=O)[O-])c1 [Example 2]
Solubility (not tested in animals - insoluble) [1]: insoluble

Compound: N=C(N)c1ccc(OCCCCCOc2ccc(C(=N)N)cc2)cc1 [Example 12, Pentamidine, reference compound]
Known effectiveness against Pneumocystis carinii pneumonia (Pneumocystis carinii [2]): effective in the treatment of, or prophylaxis against Pneumocystis carinii pneumonia
Toxicity of amidines: Effect [3, 6]: Some hypotension, edematous tails
Extent of Disease by Histologic Score: number of animals with score 0.5 (Pneumocystis carinii [4]; 0.1 mg/kg): 0 animals
Extent of Disease by Histologic Score: number of animals with score 1 (Pneumocystis carinii [4]; 0.1 mg/kg): 0 animals
Extent of Disease by Histologic Score: number of animals with score 2 (Pneumocystis carinii [4]; 0.1 mg/kg): 0 animals
Extent of Disease by Histologic Score: number of animals with score 3 (Pneumocystis carinii [4]; 0.1 mg/kg, 10-50% of lung involved): 7 animals
Extent of Disease by Histologic Score: number of animals with score 4 (Pneumocystis carinii [4]; 0.1 mg/kg, 4 = >50% of lung involved): 5 animals
Extent of Disease by Histologic Score: number of animals with score 0.5 (Pneumocystis carinii [4]; 1 mg/kg): 1 animals
Extent of Disease by Histologic Score: number of animals with score 1 (Pneumocystis carinii [4]; 1 mg/kg): 0 animals
Extent of Disease by Histologic Score: number of animals with score 2 (Pneumocystis carinii [4]; 1 mg/kg): 3 animals
Extent of Disease by Histologic Score: number of animals with score 3 (Pneumocystis carinii [4]; 1 mg/kg, 10-50% of lung involved): 5 animals
Extent of Disease by Histologic Score: number of animals with score 4 (Pneumocystis carinii [4]; 1 mg/kg, 4 = >50% of lung involved): 3 animals
Extent of Disease by Histologic Score: number of animals with score 4 (Pneumocystis carinii [4]; 10 mg/kg i.v. daily, 14 days, 4 = >50% of lung involved with many intense areas of focal infection): 0 animals
Extent of disease by histologic score (combined): number of animals in scoring group 0.5 (Pneumocystis carinii [4]; 10 mg/kg): 20 animals
Extent of disease by histologic score (combined): number of animals in scoring group 1 (Pneumocystis carinii [4]; 10 mg/kg): 26 animals
Extent of disease by histologic score (combined): number of animals in scoring group 2 (Pneumocystis carinii [4]; 10 mg/kg): 12 animals
Extent of disease by histologic score (combined): number of animals in scoring group 3 (Pneumocystis carinii [4]; 10 mg/kg, 10-50% of lung involved): 2 animals
Extent of disease by histologic score (combined): number of animals in scoring group 4 (Pneumocystis carinii [4]; 10 mg/kg, 4 = >50% of lung involved): 0 animals

Solubility (not tested in animals - insoluble) [1]: insoluble
Compound: N=C(N)c1ccc(OCCCCCOc2ccc(C(=N)N)cc2Br)c(Br)c1 [Example 16]

Compound: CN1CCN=C1c1ccc(OCCCCCOc2ccc(C3=NCCN3C)cc2)cc1 [Example 42]
Toxicity of amidines: Effect [3, 6]: Acute toxicity at 10 mg/kg and 5 mg/kg
Toxicity of amidines: Effect ([3]; rat, in vivo, 2.5 mg/kg): no toxicity
Extent of Disease by Histologic Score: number of animals with score 0.5 (Pneumocystis carinii [4]; 2.5 mg/kg i.v. daily, 14 days): 0 animals
Extent of Disease by Histologic Score: number of animals with score 1 (Pneumocystis carinii [4]; 2.5 mg/kg i.v. daily, 14 days): 0 animals
Extent of Disease by Histologic Score: number of animals with score 2 (Pneumocystis carinii [4]; 2.5 mg/kg i.v. daily, 14 days): 2 animals
Extent of Disease by Histologic Score: number of animals with score 3 (Pneumocystis carinii [4]; [7]): 3 animals
Extent of Disease by Histologic Score: number of animals with score 4 (Pneumocystis carinii [4]; [8]): 3 animals
Extent of disease by histologic score (combined): number of animals in scoring group 0.5 (Pneumocystis carinii [4]; tested at 2.5 mg/kg): 0 animals
Extent of disease by histologic score (combined): number of animals in scoring group 1 (Pneumocystis carinii [4]; tested at 2.5 mg/kg): 0 animals
Extent of disease by histologic score (combined): number of animals in scoring group 2 (Pneumocystis carinii [4]; tested at 2.5 mg/kg): 2 animals
Extent of disease by histologic score (combined): number of animals in scoring group 3 (Pneumocystis carinii [4]; [9]): 3 animals
Extent of disease by histologic score (combined): number of animals in scoring group 4 (Pneumocystis carinii [4]; [10]): 3 animals

Compound: COc1cc(C2=NCCN2)ccc1OCCCCCOc1ccc(C2=NCCN2)cc1OC [Example 43]
Toxicity of amidines: Effect ([3]; rat, in vivo, 5 mg/kg): no toxicity
Extent of Disease by Histologic Score: number of animals with score 0.5 (Pneumocystis carinii [4]; 5 mg/kg i.v. daily, 14 days): 1 animals
Extent of Disease by Histologic Score: number of animals with score 1 (Pneumocystis carinii [4]; 5 mg/kg i.v. daily, 14 days): 3 animals
Extent of Disease by Histologic Score: number of animals with score 2 (Pneumocystis carinii [4]; 5 mg/kg i.v. daily, 14 days): 1 animals
Extent of Disease by Histologic Score: number of animals with score 3 (Pneumocystis carinii [4]; 5 mg/kg i.v. daily, 14 days, 10-50% of lung involved with some intense areas of infection): 2 animals
Extent of Disease by Histologic Score: number of animals with score 4 (Pneumocystis carinii [4]; 5 mg/kg i.v. daily, 14 days, 4 = >50% of lung involved with many intense areas of focal infection): 0 animals
Extent of disease by histologic score (combined): number of animals in scoring group 0.5 (Pneumocystis carinii [4]; tested at 5 mg/kg): 1 animals
Extent of disease by histologic score (combined): number of animals in scoring group 1 (Pneumocystis carinii [4]; tested at 5 mg/kg): 3 animals
Extent of disease by histologic score (combined): number of animals in scoring group 2 (Pneumocystis carinii [4]; tested at 5 mg/kg): 1 animals
Extent of disease by histologic score (combined): number of animals in scoring group 3 (Pneumocystis carinii [4]; tested at 5 mg/kg, 10-50% of lung involved): 2 animals
Extent of disease by histologic score (combined): number of animals in scoring group 4 (Pneumocystis carinii [4]; tested at 5 mg/kg, 4 = >50% of lung involved): 0 animals
Efficacy in treating PCP compared with control (Pneumocystis carinii [4]; compound at 5 mg/kg): significantly better than the control

Compound: COc1cc(C2=NCCN2)ccc1OCCCOc1ccc(C2=NCCN2)cc1OC [Example 44]
Toxicity of amidines: Effect ([3]; rat, in vivo, 2.5 mg/kg): no toxicity
Efficacy in treating Pneumocystis carinii (words) (Pneumocystis carinii [4]): very effective in treating Pneumocystis carinii
Extent of Disease by Histologic Score: number of animals with score 0.5 (Pneumocystis carinii [4]; 2.5 mg/kg i.v. daily, 14 days): 6 animals
Extent of Disease by Histologic Score: number of animals with score 1 (Pneumocystis carinii [4]; 2.5 mg/kg i.v. daily, 14 days): 2 animals
Extent of Disease by Histologic Score: number of animals with score 2 (Pneumocystis carinii [4]; 2.5 mg/kg i.v. daily, 14 days): 0 animals
Extent of Disease by Histologic Score: number of animals with score 3 (Pneumocystis carinii [4]; [7]): 0 animals
Extent of Disease by Histologic Score: number of animals with score 4 (Pneumocystis carinii [4]; [8]): 0 animals
Efficacy in treating Pneumocystis carinii (words) (Pneumocystis carinii [4]; listed as Compound 44): very good at one fourth the dose level of pentamidine
Extent of disease by histologic score (combined): number of animals in scoring group 0.5 (Pneumocystis carinii [4]; tested at 2.5 mg/kg): 6 animals
Extent of disease by histologic score (combined): number of animals in scoring group 1 (Pneumocystis carinii [4]; tested at 2.5 mg/kg): 2 animals
Extent of disease by histologic score (combined): number of animals in scoring group 2 (Pneumocystis carinii [4]; tested at 2.5 mg/kg): 0 animals
Extent of disease by histologic score (combined): number of animals in scoring group 3 (Pneumocystis carinii [4]; [9]): 0 animals
Extent of disease by histologic score (combined): number of animals in scoring group 4 (Pneumocystis carinii [4]; [10]): 0 animals
Efficacy in treating PCP compared with pentamidine (Pneumocystis carinii [4]; compound at 2.5 mg/kg): much better than pentamidine at only one fourth the dose

Compound: N=C(N)c1ccc(OCCCOc2ccc(C(=N)N)cc2Br)c(Br)c1 [dibromopropamidine]
Known effectiveness against Pneumocystis carinii pneumonia (Pneumocystis carinii [2]): some effectiveness against PCP

Compound: N=C(N)c1ccc(OCCCCCOc2ccc(C(=N)N)cc2)cc1 [pentamidine isethionate]
Side effects / toxicity in patients [5]: Some fatalities have been attributed to severe hypotension, hypoglycemia, and cardiac arrhythmias
